PubChem BioAssay AID2060600 (Molecular Pharmacology Branch, DTP, NCI, 2025)

Tested on: 996289-038-R-J1-PDC complex spheroid viability
Experiment: Anticancer human tumor 996289-038-R-J1-PDC patient-derived colon adenocarcinoma cell line growth inhibition [CLK]
Conditions: for IC50: curve of first compound; for viability, T/C: stronger effect = lower value
Summary of the method: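 Multi-cell-type spheroids combined patient-derived tumor cells with HUVEC endothelial cells and human mesenchymal stem cells. Paired agents were dosed in half-log steps down from about clinical Cmax, or from 10 microM where Cmax was unknown.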

[1] = second compound 0.0316 µM, first compound 0.0316 µM
[2] = second compound 0.0316 µM, first compound 0.1 µM
[3] = second compound 0.0316 µM, first compound 0.316 µM
[4] = second compound 0.0316 µM, first compound 1 µM
[5] = second compound 0.0316 µM, first compound 3.16 µM
[6] = second compound 0.0316 µM, first compound 10 µM
[7] = second compound 0.1 µM, first compound 0.0316 µM
[8] = second compound 0.1 µM, first compound 0.1 µM
[9] = second compound 0.1 µM, first compound 0.316 µM
[10] = second compound 0.1 µM, first compound 1 µM
[11] = second compound 0.1 µM, first compound 3.16 µM
[12] = second compound 0.1 µM, first compound 10 µM
[13] = second compound 0.316 µM, first compound 0.0316 µM
[14] = second compound 0.316 µM, first compound 0.1 µM
[15] = second compound 0.316 µM, first compound 0.316 µM
[16] = second compound 0.316 µM, first compound 1 µM
[17] = second compound 0.316 µM, first compound 3.16 µM
[18] = second compound 0.316 µM, first compound 10 µM
[19] = second compound 1 µM, first compound 0.0316 µM
[20] = second compound 1 µM, first compound 0.1 µM
[21] = second compound 1 µM, first compound 0.316 µM
[22] = second compound 1 µM, first compound 1 µM
[23] = second compound 1 µM, first compound 3.16 µM
[24] = second compound 1 µM, first compound 10 µM
[25] = second compound 3.16 µM, first compound 0.0316 µM
[26] = second compound 3.16 µM, first compound 0.1 µM
[27] = second compound 3.16 µM, first compound 0.316 µM
[28] = second compound 3.16 µM, first compound 1 µM
[29] = second compound 3.16 µM, first compound 3.16 µM
[30] = second compound 3.16 µM, first compound 10 µM
[31] = second compound 10 µM, first compound 0.0316 µM
[32] = second compound 10 µM, first compound 0.1 µM
[33] = second compound 10 µM, first compound 0.316 µM
[34] = second compound 10 µM, first compound 1 µM
[35] = second compound 10 µM, first compound 3.16 µM
[36] = second compound 10 µM, first compound 10 µM
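Further: spheroids exposed to the agents for 7 days before readout.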

Molecule CC1COCCN1c1cc(C2(S(C)(=N)=O)CC2)nc(-c2ccnc3[nH]ccc23)n1 (centres undefined) + CN1CCN(c2cc(C(=O)Nc3cc4cc(-c5cnn(C)c5)ccc4cn3)ccn2)CC1 has an IC50 (second compound 0.0316 µM) greater than 10 µM, an IC50 (second compound 0.1 µM) greater than 10 µM and an IC50 (second compound 0.316 µM) greater than 10 µM. The IC50 (second compound 1 µM) was less than 0.0316 µM, the IC50 (second compound 3.16 µM) was less than 0.0316 µM and the IC50 (second compound 10 µM) was less than 0.0316 µM. The viability, T/C [1] was 103%, the viability, T/C [2] was 104% and the viability, T/C [3] was 98.1%. The viability, T/C [4] was 103%, the viability, T/C [5] was 99.2% and the viability, T/C [6] was 80.8%. The viability, T/C [7] was 102%, the viability, T/C [8] was 91.3% and the viability, T/C [9] was 83.1%. It also gave a viability, T/C [10] of 91.7%, a viability, T/C [11] of 90.9% and a viability, T/C [12] of 71%. For the same molecule, the viability, T/C [13] was 71.4%, the viability, T/C [14] was 70.1% and the viability, T/C [15] was 69.3%. It also gave a viability, T/C [16] of 62.7%, a viability, T/C [17] of 66% and a viability, T/C [18] of 49.9%. The viability, T/C [19] was 6.36%, the viability, T/C [20] was 8.03% and the viability, T/C [21] was 5.79%. It also gave a viability, T/C [22] of 5.93%, a viability, T/C [23] of 5.27% and a viability, T/C [24] of 4.07%. The viability, T/C [25] was 1.36%, the viability, T/C [26] was 1.15% and the viability, T/C [27] was 1.45%. It also gave a viability, T/C [28] of 0.91%, a viability, T/C [29] of 1.03% and a viability, T/C [30] of 2.2%. It also gave a viability, T/C [31] of 1.62%, a viability, T/C [32] of 0.34% and a viability, T/C [33] of 0.65%. The viability, T/C [34] was 0.65%, the viability, T/C [35] was 4.11% and the viability, T/C [36] was 0.52%.
For O=C(c1cc(Cc2n[nH]c(=O)c3ccccc23)ccc1F)N1CCN(C(=O)C2CC2)CC1 + CN1CCN(c2cc(C(=O)Nc3cc4cc(-c5cnn(C)c5)ccc4cn3)ccn2)CC1, the IC50 (second compound 0.0316 µM) was greater than 10 µM, the IC50 (second compound 0.1 µM) was greater than 10 µM and the IC50 (second compound 0.316 µM) was greater than 10 µM. It also gave an IC50 (second compound 1 µM) of less than 0.0316 µM, an IC50 (second compound 3.16 µM) of less than 0.0316 µM and an IC50 (second compound 10 µM) of less than 0.0316 µM. It also gave a viability, T/C [1] of 92.9%, a viability, T/C [2] of 109% and a viability, T/C [3] of 91.9%. The viability, T/C [4] was 110%, the viability, T/C [5] was 104% and the viability, T/C [6] was 100%. It also gave a viability, T/C [7] of 84.9%, a viability, T/C [8] of 97.3% and a viability, T/C [9] of 84.6%. The viability, T/C [10] was 89.2%, the viability, T/C [11] was 92.7% and the viability, T/C [12] was 87.8%. For the same molecule, the viability, T/C [13] was 57.9%, the viability, T/C [14] was 65.9% and the viability, T/C [15] was 73.4%. It also gave a viability, T/C [16] of 58.4%, a viability, T/C [17] of 67.9% and a viability, T/C [18] of 60.4%. It also gave a viability, T/C [19] of 3.61%, a viability, T/C [20] of 4.51% and a viability, T/C [21] of 5.54%. The viability, T/C [22] was 3.94%, the viability, T/C [23] was 3.05% and the viability, T/C [24] was 5.36%. It also gave a viability, T/C [25] of 1.23%, a viability, T/C [26] of 1.19% and a viability, T/C [27] of 2.64%. For the same molecule, the viability, T/C [28] was 1%, the viability, T/C [29] was 0.92% and the viability, T/C [30] was 1.35%. The viability, T/C [31] was 0.69%, the viability, T/C [32] was 1.28% and the viability, T/C [33] was 0.88%. For the same molecule, the viability, T/C [34] was 2.07%, the viability, T/C [35] was 0.54% and the viability, T/C [36] was 2.19%.
